Where two headings read alike, the source gives them in different places.
Molecular target: T1, SIRT1 (Homo sapiens, UniProt Q96EB6)
T1 sequence (Q96EB6 1-747): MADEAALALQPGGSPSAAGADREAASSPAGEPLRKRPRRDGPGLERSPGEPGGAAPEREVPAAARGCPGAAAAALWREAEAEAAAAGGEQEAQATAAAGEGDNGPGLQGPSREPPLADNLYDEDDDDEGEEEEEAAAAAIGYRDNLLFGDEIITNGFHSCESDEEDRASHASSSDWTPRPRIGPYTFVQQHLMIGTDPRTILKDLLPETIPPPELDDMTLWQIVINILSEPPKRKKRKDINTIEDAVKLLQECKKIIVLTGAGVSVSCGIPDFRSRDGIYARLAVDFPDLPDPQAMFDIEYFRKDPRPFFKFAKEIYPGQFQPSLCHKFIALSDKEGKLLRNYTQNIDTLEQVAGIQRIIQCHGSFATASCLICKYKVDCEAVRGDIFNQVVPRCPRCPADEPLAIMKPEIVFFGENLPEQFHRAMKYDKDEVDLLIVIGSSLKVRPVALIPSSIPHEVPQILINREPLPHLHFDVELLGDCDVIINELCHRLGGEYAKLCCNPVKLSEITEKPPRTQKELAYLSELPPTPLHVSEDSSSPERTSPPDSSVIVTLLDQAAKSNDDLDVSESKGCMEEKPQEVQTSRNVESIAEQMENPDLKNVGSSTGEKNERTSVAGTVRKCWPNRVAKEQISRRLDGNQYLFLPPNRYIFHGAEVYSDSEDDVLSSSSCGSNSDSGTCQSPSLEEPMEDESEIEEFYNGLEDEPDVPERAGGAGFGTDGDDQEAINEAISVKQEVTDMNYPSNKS
Experiment: Trp mass spectrometry assay of SIRT1 activation (Ac-R-H-K-K(Ac)-W-NH2 peptide)
Assay type: biochemical
Conditions: for Emax: 25 min, read-out: TRP MAX RESP (percent maximum fold activation)
Description: The Trp mass spectrometry assay was conducted as follows. […] The SIRT1 protein was obtained by cloning the SirT1 gene into a T7-promoter containing vector, which was then expressed in BL21(DE3) bacterial cells and purified as described in further detail below. Test compound was added at varying concentrations to this reaction mixture and the resulting reactions were monitored. After the 25 minute incubation with SIRT1, 10 μL of 10% formic acid was added to stop the reaction. The resulting reactions were sealed and frozen for later mass spec analysis. The relative SIRT1 activity was then determined by measuring the amount of O-acetyl-ADP-ribose (OAADPR) formed (or, alternatively, the amount of deacetylated Trp peptide generated) by the NAD-dependent sirtuin deacetylation reaction in the presence of varying concentrations of the test compound versus control reactions lacking the test compound. The degree to which the test agent activated deacetylation by SIRT1 was expressed as EC1.5 (i.e., the concentration of compound required to increase SIRT1 activity by 50% over the control lacking test compound), and Percent Maximum Activation (i.e., the maximum activity relative to control (100%) obtained for the test compound).
This time point was the same as that used for test compounds and, within the linear range, the endpoint represents a change in velocity.
For the above assay, SIRT1 protein was expressed and purified as follows. The SirT1 gene was cloned into a T7-promoter containing vector and transformed into BL21(DE3). The protein was expressed by induction with 1 mM IPTG as an N-terminal His-tag fusion protein at 18° C. overnight and harvested at 30,000×g. Cells were lysed with lysozyme in lysis buffer (50 mM Tris-HCl, 2 mM Tris[2-carboxyethyl]phosphine (TCEP), 10 μM ZnCl2, 200 mM NaCl) and further treated with sonication for 10 min for complete lysis. The protein was purified over a Ni-NTA column (Amersham) and fractions containing pure protein were pooled, concentrated and run over a sizing column (Sephadex S200 26/60 global). The peak containing soluble protein was collected and run on an Ion-exchange column (MonoQ). Gradient elution (200 mM-500 mM NaCl) yielded pure protein. This protein was concentrated and dialyzed against dialysis buffer (20 mM Tris-HCl, 2 mM TCEP) overnight. The protein was aliquoted and frozen at −80° C. until further use.
“NT” means not tested; “ND” means not determinable.

[1] = Trp peptide 0.5 μM, 120 μM βNAD+, 10 nM SIRT1, 25 min at 25° C., relative to control (100%)
[2] = Trp peptide 0.5 μM, 120 μM βNAD+, 10 nM SIRT1, 25 min at 25° C.

SMILES	Emax [1] [%]	TRP Activity (EC1.5, concentration of test compound that results in 150% activation of SIRT1) [2]	Emax [%]
O=C(NC(CO)C(F)(F)F)c1ccc2c(n1)N(C(=O)Nc1ccccn1)[C@H]1CCN2C1 (stereo partly drawn) [Example 8, (4S)—N-5-(pyridin-2-yl)-N-7-(1,1,1-trifluoro-3-hydroxypropan-2-yl)-3,4-dihydro-1,4-methanopyrido[2,3-b][1,4]diazepine-5,7(2H)-dicarboxamide]	> 150	A (EC1.5<1 μM)	–
COCC(NC(=O)c1ccc2c(n1)N(C(=O)Nc1ccccn1)[C@H]1CCN2C1)C(F)(F)F (stereo partly drawn) [Example 9, (4S)—N-5-(pyridin-2-yl)-N-7-(1,1,1-trifluoro-3-methoxypropan-2-yl)-3,4-dihydro-1,4-methanopyrido[2,3-b][1,4]diazepine-5,7(2H)-dicarboxamide]	> 150	A (EC1.5<1 μM)	–
CC(CO)NC(=O)c1ccc2c(n1)N(C(=O)Nc1ccccn1)[C@H]1CCN2C1 (stereo partly drawn) [Example 10, (4S)—N-7-(1-hydroxypropan-2-yl)-N-5-(pyridin-2-yl)-3,4-dihydro-1,4-methanopyrido [2,3-b] [1, 4] diazepine-5, 7(2H)-dicarboxamide]	> 150	B (EC1.5 1-25 μM)	–
COCC(C)NC(=O)c1ccc2c(n1)N(C(=O)Nc1ccccn1)[C@H]1CCN2C1 (stereo partly drawn) [Example 11, (4S)—N-7-(1-methoxypropan-2-yl)-N-5-(pyridin-2-yl)-3,4-dihydro-1,4-methanopyrido [2,3-b] [1, 4] diazepine-5, 7(2H)-dicarboxamide]	> 150	B (EC1.5 1-25 μM)	–
COC(=O)CNC(=O)c1ccc2c(n1)N(C(=O)Nc1ccccn1)[C@H]1CCN2C1 [Example 12]	> 150	B (EC1.5 1-25 μM)	–
O=C(NCCO)c1ccc2c(n1)N(C(=O)Nc1ccccn1)[C@H]1CCN2C1 [Example 13, (4S)—N-7-(2-hydroxyethyl)-N-5-(pyridin-2-yl)-3,4-dihydro-1,4-methanopyrido [2,3-b] [1, 4] diazepine-5, 7(2H)-dicarboxamide]	> 150	–	–
O=C(O)CNC(=O)c1ccc2c(n1)N(C(=O)Nc1ccccn1)[C@H]1CCN2C1 [Example 14, 2-((4S)-5-(pyridin-2-ylcarbamoyl)-2,3,4,5-tetrahydro-1,4 methanopyrido[2,3-b][1,4]diazepine-7-carboxamido)acetic acid]	< 150	C (EC1.5>25 μM)	–
CC(C)(C)CNC(=O)c1ccc2c(n1)N(C(=O)Nc1ccccn1)[C@H]1CCN2C1 [Example 15, (4S)—N-7-neopentyl-N-5-(pyridin-2-yl)-3,4-dihydro-1,4-methanopyrido[2,3-b][1,4]diazepine-5,7(2H)-dicarboxamide]	> 150	A (EC1.5<1 μM)	–
O=C(N[C@H](CO)C(F)(F)F)c1ccc2c(n1)N(C(=O)Nc1ccccn1)[C@H]1CCN2C1 [Example 16, (4S)—N5-(pyridin-2-yl)-N7-((R)-1,1,1-trifluoro-3-hydroxypropan-2-yl)-3,4-dihydro-1,4-methanopyrido[2,3-b][1,4]diazepine-5,7(2H)-dicarboxamide]	> 150	A (EC1.5<1 μM)	–
O=C(NC1(CO)CC1)c1ccc2c(n1)N(C(=O)Nc1ccccn1)[C@H]1CCN2C1 [Example 17, (4S)—N7-(1-(hydroxymethyl)cyclopropyl)-N5-(pyridin-2-yl)-3,4-dihydro-1,4-methanopyrido[2,3-b][1,4]diazepine-5,7(2H)-dicarboxamide]	> 150	B (EC1.5 1-25 μM)	–
C[C@@H](NC(=O)c1ccc2c(n1)N(C(=O)Nc1ccccn1)[C@H]1CCN2C1)C(F)(F)F [Example 19, (4S)—N5-(pyridin-2-yl)-N7-((R)-1,1,1-trifluoropropan-2-yl)-3,4-dihydro-1,4-methanopyrido[2,3-b][1,4]diazepine-5,7(2H)-dicarboxamide]	> 150	A (EC1.5<1 μM)	–
O=C(NC1CC1(F)F)c1ccc2c(n1)N(C(=O)Nc1ccccn1)[C@H]1CCN2C1 (stereo partly drawn) [Example 20, (4S)—N7-(2,2-difluorocyclopropyl)-N5-(pyridin-2-yl)-3,4-dihydro-1,4-methanopyrido[2,3-b][1,4]diazepine-5,7(2H)-dicarboxamide]	> 150	A (EC1.5<1 μM)	–
Cc1ccnc(NC(=O)N2c3nc(C(=O)NC4CC4)ccc3N3CC[C@H]2C3)c1 [Example 22, (4S)—N7-cyclopropyl-N5-(4-methylpyridin-2-yl)-3,4-dihydro-1,4-methanopyrido[2,3-b][1,4]diazepine-5,7(2H)-dicarboxamide]	> 150	B (EC1.5 1-25 μM)	–
Cn1cccc(NC(=O)N2c3nc(C(=O)NCC(F)(F)F)ccc3N3CC[C@H]2C3)c1=O [Example 23, (4S)—N5-(1-methyl-2-oxo-1,2-dihydropyridin-3-yl)-N7-(2,2,2-trifluoroethyl)-3,4-dihydro-1,4-methanopyrido[2,3-b][1,4]diazepine-5,7(2H)-dicarboxamide]	> 150	A (EC1.5<1 μM)	–
O=C(NC1CC1)c1ccc2c(n1)N(C(=O)Nc1cc(OC[C@H](O)CO)ccn1)[C@H]1CCN2C1 [Example 24, (4S)—N7-cyclopropyl-N5-(4-((R)-2,3-dihydroxypropoxy)pyridin-2-yl)-3,4-dihydro-1,4-methanopyrido[2,3-b][1,4]diazepine-5,7(2H)-dicarboxamide]	> 150	B (EC1.5 1-25 μM)	–
Cc1nc(NC(=O)N2c3nc(C(=O)N[C@H](C)C(F)(F)F)ccc3N3CC[C@H]2C3)co1 [Example 25, (4S)—N5-(2-methyloxazol-4-yl)-N7-((R)-1,1,1-trifluoropropan-2-yl)-3,4-dihydro-1,4-methanopyrido[2,3-b][1,4]diazepine-5,7(2H)-dicarboxamide]	> 150	A (EC1.5<1 μM)	–
CC[C@H](C)NC(=O)c1ccc2c(n1)N(C(=O)Nc1ccccn1)[C@H]1CCN2C1 [Example 26, (4S)—N7-((S)-sec-butyl)-N5-(pyridin-2-yl)-3,4-dihydro-1,4-methanopyrido[2,3-b][1,4]diazepine-5,7(2H)-dicarboxamide]	> 150	A (EC1.5<1 μM)	–
O=C(NC1CCCCC1)c1ccc2c(n1)N(C(=O)Nc1ccccn1)[C@H]1CCN2C1 [Example 27, (4S)—N7-cyclohexyl-N5-(pyridin-2-yl)-3,4-dihydro-1,4-methanopyrido[2,3-b][1,4]diazepine-5,7(2H)-dicarboxamide]	–	A (EC1.5<1 μM)	> 150
O=C(NCC1(CO)CC1)c1ccc2c(n1)N(C(=O)Nc1ccccn1)[C@H]1CCN2C1 [Example 28, (4S)—N7-((1-(hydroxymethyl)cyclopropyl)methyl)-N5-(pyridin-2-yl)-3,4-dihydro-1,4-methanopyrido[2,3-b][1,4]diazepine-5,7(2H)-dicarboxamide]	> 150	B (EC1.5 1-25 μM)	–

From patent US10072011B2, “Substituted bridged urea analogs as sirtuin modulators” (GlaxoSmithKline Intellectual Property (No.2) Limited, priority 2014, dated 2018)
